Where two headings read alike, the source gives them in different places. Bounds are passed on as bounds.

The subject of data set [1] is murine peritoneal exudate cells (PEC). As to the kind of experiment: "In vitro-ex vivo" effect on the phagocytic activity of exudate peritoneal cells (SRBC phagocytosis). The following applies: 25 mg/kg/day i.p. Details: species or system mouse (B6 D2 F1). As to the method: Assessment of the "in vitro-ex vivo" effect of ST 557, ST 563, ST 564, ST 570, ST 608 and ST 626 on the phagocytic activity of exudate peritoneal cells (PEC)
Male B6 D2 F1 mice aged 6-8 weeks (5 animals each group) were used.
The compounds were administered i.p. (25 mg/kg/day), ST 557, ST 563 and ST 626 were also administered per os (100 mg/kg/day) from day -5 to day -1 (PEC harvesting at day 0).
The experimental procedure was substantially the same as that described by Williams et al., in "Methods in Immunology and Immunochemistry", Acad. Press. 5: 261 (1976).
In particular, 24 hours following the end of the treatment, PECs from each experimental group were harvested, pooled and their concentration was adjusted to 4×10^6 cells/ml.
To volumes of 250 μl of each PEC sample were added equal volumes of 0.4% SRBC (Sheep Red Blood Cells) opsonized with hyperimmune serum.
The samples (duplicate) were incubated for 1 hour and then subjected to hypotonic shock in order to remove the non-phagocytized SRBC. After restoring the osmolarity, the phagocytes were cytocentrifuged, stained with a differential dye and observed under the microscope.
The results were expressed as:
(a) percentage of cells that have phagocytized with respect to 100 phagocytizing cells;
(b) total number of phagocytized SRBC;
(c) average number of SRBC in each phagocyte.

For a further data set, the system named is splenocytes. The experiment in a line: "In vitro-ex vivo" effect on the mytogen (PHA, ConA, LPS)-induced splenocyte proliferation in mice immunodepressed with cyclophosphamide. Details: species or system mouse (B6 D2 F1). As to conditions: for S.I. (stimulation index): with respect to the immunodepressed controls; for AUC (area under curve): immunodepressed. Here is the method:
Assessment of the "in vitro-ex vivo" effect of ST 557, ST 563 ST 564 on the mytogen (PHA, ConA, LPS)-Induced splenocyte proliferation in mice Immunodepressed with cyclotohosphamide
Male B6 D2 F1 mice aged 7-9 weeks (5 mice per group) were used.
The immunosuppressor (cyclophosphamide) was administered i.p. at the dose of 100 mg/kg at day -5. The compounds were administered i.p. (25 mg/kg/day) and per os (100 mg/kg/day) from day -5 to day -1 (spleen excision at day 0).
Splenocyte proliferation was induced by three different mytogens: PHA and ConA active on T-lymphocytes, and LPS active on B-lymphocytes. Each mytogen was tested at three different concentrations (suboptimal, optimal and superoptimal) corresponding to 0.5, 4 and 6 mcg/ml/well for PHA; 0.5, 4 and 8 mcg/ml/well for ConA and 0.5, 150 and 500 mcg/ml/well for LPS.
The experimental procedure is identical to that described in test 4.
The results are expressed as both AUC (see test 4) and S.I. In order to assess the efficacy of the immunosuppressor and the activity of the tested compounds, S.I. has been determined both for the immunodepressed controls (with respect to the normal controls) and for the immunodepressed treated animals (with respect to the immunodepressed controls), respectively. [formula]

The next data set can be described thus: LD50, intravenous. The following applies: mouse, in vivo, 0.9% saline. Here is the method:
LD50 was determined according to Carrol S. Weil's method, Biometrics, pages 249-263 (1952) in male Swiss albino mice weighing 22-24 g.
The various compounds dissolved in 0.9% saline were administered intravenously.

The nature of data set [2]: Tolerability after oral or intravenous administration. Set-up: species or system mouse (Swiss albino). As to conditions: mouse, in vivo, 7 days observation, read-out: Tolerability, dose. Here is the method:
The test was conducted in male Swiss albino mice weighing 22-24 g.
A group of animals (4 animals/dose) which had been kept fasting for 18 hours, were orally administered the compounds ST 557, ST 563, ST 564 and ST 570 dissolved in twice distilled water.
A further group of animals, which had free access to food and water, were administered intravenously the same compounds dissolved in saline it pH 7. All the animals were kept under observation for 7 days.

For `COc1ccc(OCC(O)CNC2CCc3cc(OC)c(OC)cc3C2)cc1` (stereo not shown) [ST 564, 2-[(N-2-hydroxy-3-(4-methoxyphenoxy)propyl)amino]-6,7-dimethoxytetraline], in data set [1], the Fagocytizing cells came to 40.0%. The “Total n° SRBC phagocytized” value in data set [1] was 126.6. The “SRBC per phagocytizing cell” value in data set [1] (average number of SRBC in each phagocyte) was found to be 3.2. The “S.I. (stimulation index)” value with splenocytes (ConA, 25 mg/kg/day i.p.) came out at 1.01; with splenocytes (ConA, 100 mg/kg/day os), 0.78; in the data set with splenocytes (LPS, 25 mg/kg/day i.p.) it was 2.74; with splenocytes (LPS, 100 mg/kg/day os), 0.65; with splenocytes (PHA, 25 mg/kg/day i.p.), 2.05. In addition, the “AUC (area under curve)” value is 514 ± 10 ×10^-3 in the data set with splenocytes (ConA, 25 mg/kg/day i.p.); 577 ± 41 ×10^-3 in the data set on splenocytes (ConA, 100 mg/kg/day os); 2533 ± 314 ×10^-3 in the data set on splenocytes (LPS, 25 mg/kg/day i.p.); 3023 ± 257 ×10^-3 with splenocytes (LPS, 100 mg/kg/day os); 205 ± 18 ×10^-3 with splenocytes (PHA, 25 mg/kg/day i.p.). Besides, in “LD50, intravenous”, the LD50 (as a rule, the dose at which mortality reaches 50%) came to 44.5 mg/kg. Moreover, the MTD at 168 h in data set [2] (iv) was above 20 mg/kg; in data set [2] (po, os, fasting 18 hours), above 50 mg/kg.
